In ChEMBL document CHEMBL5465560, “Selectivity Literature for EUbOPEN Chemogenomic Library” (2024):
Each block holds one compound with its values, some of them ahead of it.

Tests used:
[1] = molecular target: Transcription intermediary factor 1-alpha (Homo sapiens) (UniProt O15164); assay: Selectivity interaction (Human bromodomain panel (DSF assay)) EUB0000233b TRIM24
[2] = molecular target: T1, Mitogen-activated protein kinase kinase kinase 5 (Homo sapiens) (UniProt Q99683); assay: Selectivity interaction (ActivX KiNativ screen (kinase selectivity in THP-1 cell lysates)) EUB0000639a MAP3K5; type: subcellular; details: lysate, at 5 µM
T1 sequence (whole entry): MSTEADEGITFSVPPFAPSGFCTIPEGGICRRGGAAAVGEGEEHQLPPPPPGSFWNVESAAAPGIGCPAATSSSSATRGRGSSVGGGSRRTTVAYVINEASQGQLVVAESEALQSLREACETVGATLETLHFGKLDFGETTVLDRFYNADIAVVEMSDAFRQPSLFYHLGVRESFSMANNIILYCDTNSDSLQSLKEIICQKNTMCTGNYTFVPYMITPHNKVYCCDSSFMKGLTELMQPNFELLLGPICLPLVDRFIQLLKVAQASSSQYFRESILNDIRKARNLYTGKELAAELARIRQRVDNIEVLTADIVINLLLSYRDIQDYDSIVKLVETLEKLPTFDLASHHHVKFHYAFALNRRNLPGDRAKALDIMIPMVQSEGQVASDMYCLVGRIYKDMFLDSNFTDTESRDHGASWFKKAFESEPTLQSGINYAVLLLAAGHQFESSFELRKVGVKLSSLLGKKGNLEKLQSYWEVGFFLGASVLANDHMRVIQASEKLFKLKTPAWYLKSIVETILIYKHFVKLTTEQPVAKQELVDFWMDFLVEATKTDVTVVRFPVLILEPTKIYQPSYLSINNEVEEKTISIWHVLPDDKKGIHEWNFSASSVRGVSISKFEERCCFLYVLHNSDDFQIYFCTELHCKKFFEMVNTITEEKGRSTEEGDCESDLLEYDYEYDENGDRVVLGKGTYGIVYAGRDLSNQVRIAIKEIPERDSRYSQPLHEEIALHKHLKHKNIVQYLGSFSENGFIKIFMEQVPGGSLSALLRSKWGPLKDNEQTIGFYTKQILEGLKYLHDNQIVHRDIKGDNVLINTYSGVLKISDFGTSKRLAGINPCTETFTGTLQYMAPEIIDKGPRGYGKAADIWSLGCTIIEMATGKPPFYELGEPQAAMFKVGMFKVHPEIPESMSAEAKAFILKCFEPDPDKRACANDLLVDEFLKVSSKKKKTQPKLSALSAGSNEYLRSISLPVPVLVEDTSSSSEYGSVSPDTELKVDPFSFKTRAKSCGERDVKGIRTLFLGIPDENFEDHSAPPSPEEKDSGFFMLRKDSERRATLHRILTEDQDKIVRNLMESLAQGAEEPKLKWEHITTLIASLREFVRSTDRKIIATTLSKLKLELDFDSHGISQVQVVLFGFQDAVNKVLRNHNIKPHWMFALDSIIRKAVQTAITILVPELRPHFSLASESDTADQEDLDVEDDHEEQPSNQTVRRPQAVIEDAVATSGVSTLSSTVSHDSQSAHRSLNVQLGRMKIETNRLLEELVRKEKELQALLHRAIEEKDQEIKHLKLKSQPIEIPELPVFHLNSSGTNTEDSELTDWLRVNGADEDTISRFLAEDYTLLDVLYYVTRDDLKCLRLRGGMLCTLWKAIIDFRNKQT

[3] = molecular target: Cyclin-dependent kinase 14 (Homo sapiens) (UniProt O94921); assay: Selectivity interaction (ActivX KiNativ screen (kinase selectivity in THP-1 cell lysates)) EUB0000639a CDK14; type: subcellular; details: lysate, at 5 µM
Chain of Cyclin-dependent kinase 14 (Homo sapiens) (O94921 whole entry): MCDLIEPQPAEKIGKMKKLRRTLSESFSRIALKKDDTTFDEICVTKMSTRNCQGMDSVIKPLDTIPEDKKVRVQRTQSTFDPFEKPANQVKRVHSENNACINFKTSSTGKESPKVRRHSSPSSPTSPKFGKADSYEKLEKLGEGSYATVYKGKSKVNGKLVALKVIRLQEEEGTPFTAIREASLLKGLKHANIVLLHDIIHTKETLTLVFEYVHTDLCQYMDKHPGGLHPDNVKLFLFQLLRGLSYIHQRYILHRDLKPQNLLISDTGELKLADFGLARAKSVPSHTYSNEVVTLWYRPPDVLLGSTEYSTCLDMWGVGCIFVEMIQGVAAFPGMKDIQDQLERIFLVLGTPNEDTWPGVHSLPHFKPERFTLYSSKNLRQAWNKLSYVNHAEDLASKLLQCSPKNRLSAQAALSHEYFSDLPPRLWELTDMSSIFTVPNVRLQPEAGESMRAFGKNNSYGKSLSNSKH

[4] = molecular target: Histone-lysine N-methyltransferase KMT5B (Homo sapiens) (UniProt Q4FZB7); assay: Selectivity interaction (Methyltransferase screen (radiometric assays, panel of 8 PRMTs, 21 protein lysine methyltransferases, 3 DNA methyltransferases, and one RNA methyltransferase)) EUB0000271b SUV420H1
Chain of Histone-lysine N-methyltransferase KMT5B (Homo sapiens) (Q4FZB7 whole entry, looked up, the tested form may be a part): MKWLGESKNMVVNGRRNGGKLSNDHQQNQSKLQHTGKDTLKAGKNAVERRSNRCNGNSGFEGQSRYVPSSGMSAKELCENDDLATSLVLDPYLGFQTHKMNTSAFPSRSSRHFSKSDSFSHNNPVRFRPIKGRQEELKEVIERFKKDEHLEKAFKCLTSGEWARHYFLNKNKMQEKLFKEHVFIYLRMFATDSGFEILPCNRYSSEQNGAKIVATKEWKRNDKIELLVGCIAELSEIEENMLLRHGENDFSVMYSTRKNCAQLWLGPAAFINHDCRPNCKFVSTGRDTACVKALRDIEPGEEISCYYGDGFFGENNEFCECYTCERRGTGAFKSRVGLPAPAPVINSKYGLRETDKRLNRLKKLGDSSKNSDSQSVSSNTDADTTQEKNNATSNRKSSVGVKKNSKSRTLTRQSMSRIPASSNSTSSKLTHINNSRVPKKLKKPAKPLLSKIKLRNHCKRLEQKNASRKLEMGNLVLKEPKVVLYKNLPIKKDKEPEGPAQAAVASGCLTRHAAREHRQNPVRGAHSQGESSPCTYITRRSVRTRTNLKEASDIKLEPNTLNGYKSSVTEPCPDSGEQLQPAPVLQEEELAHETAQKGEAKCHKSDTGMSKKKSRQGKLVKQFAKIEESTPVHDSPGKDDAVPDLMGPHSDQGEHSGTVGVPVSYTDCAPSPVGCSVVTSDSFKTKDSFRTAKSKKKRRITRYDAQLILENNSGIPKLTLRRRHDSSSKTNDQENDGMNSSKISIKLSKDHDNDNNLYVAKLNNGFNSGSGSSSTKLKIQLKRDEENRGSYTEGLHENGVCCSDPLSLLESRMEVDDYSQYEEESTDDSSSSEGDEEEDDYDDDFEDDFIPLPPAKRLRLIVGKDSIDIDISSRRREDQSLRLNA

[5] = molecular target: LIM domain kinase 1 (Homo sapiens) (UniProt P53667); assay: Selectivity interaction (Ambit KINOMEscan and KiNATiv profiling in Jurkat cells) EUB0000090b LIMK1; type: cell-based; details: at 1 µM
Chain of LIM domain kinase 1 (Homo sapiens) (P53667 whole entry, looked up, the tested form may be a part): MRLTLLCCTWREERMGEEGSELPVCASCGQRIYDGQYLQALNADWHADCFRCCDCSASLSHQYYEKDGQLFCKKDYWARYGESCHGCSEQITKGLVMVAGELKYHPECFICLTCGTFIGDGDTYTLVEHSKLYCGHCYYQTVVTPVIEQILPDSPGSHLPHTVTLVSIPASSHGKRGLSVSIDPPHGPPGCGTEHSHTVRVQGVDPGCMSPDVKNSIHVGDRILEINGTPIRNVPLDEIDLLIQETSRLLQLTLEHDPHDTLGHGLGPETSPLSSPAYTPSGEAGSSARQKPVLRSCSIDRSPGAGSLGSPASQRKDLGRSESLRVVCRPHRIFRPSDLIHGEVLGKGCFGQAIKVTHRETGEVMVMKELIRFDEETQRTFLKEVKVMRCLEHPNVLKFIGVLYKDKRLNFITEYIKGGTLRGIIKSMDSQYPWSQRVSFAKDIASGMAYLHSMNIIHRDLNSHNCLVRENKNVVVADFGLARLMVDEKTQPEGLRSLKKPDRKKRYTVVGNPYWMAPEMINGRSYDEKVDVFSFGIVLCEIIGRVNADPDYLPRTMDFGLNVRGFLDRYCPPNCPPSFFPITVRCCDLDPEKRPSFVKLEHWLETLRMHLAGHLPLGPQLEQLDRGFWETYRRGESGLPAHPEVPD

[6] = molecular target: Macrophage-stimulating protein receptor (Homo sapiens, UniProt Q04912); assay: Selectivity interaction (KinomeScan (DiscoverX)) EUB0000045b MST1R
Chain of Macrophage-stimulating protein receptor (Q04912 25-304 limits assumed): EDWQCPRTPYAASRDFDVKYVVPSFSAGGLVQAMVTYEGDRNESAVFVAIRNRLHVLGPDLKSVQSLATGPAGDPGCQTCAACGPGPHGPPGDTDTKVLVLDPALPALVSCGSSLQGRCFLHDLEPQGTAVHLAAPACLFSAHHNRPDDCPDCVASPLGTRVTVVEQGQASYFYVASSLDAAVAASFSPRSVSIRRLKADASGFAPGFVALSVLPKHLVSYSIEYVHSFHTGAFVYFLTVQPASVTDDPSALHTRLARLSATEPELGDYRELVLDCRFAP
Chain of Macrophage-stimulating protein receptor (Q04912 310-1400 limits assumed): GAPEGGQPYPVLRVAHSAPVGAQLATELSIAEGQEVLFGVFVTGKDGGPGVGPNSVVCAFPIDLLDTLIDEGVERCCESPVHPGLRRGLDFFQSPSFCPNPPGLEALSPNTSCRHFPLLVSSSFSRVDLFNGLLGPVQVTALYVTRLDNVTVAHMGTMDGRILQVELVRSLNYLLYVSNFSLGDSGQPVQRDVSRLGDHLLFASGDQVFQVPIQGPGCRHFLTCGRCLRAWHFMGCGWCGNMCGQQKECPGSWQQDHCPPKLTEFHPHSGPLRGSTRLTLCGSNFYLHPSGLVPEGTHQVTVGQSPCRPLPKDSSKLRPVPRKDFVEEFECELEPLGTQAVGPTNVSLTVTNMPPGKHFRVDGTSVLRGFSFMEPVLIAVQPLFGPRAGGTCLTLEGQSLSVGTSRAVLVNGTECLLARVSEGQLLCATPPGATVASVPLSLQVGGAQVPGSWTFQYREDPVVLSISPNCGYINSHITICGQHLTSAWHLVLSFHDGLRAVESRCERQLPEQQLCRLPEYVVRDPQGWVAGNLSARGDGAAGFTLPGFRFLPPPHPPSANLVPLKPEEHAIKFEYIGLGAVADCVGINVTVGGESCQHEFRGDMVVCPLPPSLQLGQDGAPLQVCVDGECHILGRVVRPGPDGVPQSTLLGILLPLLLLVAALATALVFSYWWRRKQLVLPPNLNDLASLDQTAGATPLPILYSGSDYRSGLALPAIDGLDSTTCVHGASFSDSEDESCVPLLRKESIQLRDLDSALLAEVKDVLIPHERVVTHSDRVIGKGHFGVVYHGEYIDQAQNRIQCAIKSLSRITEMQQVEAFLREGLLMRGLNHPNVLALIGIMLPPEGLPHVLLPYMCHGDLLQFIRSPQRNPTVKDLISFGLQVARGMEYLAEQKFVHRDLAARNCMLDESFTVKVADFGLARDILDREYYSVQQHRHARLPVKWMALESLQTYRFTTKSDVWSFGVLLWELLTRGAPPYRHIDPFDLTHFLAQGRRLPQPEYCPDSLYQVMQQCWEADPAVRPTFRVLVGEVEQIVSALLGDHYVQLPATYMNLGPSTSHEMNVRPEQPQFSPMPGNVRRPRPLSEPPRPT

[7] = molecular target: T2, Phosphatidylinositol 4,5-bisphosphate 3-kinase catalytic subunit delta isoform (Homo sapiens) (UniProt O00329); assay: Selectivity interaction (KinomeScan (DiscoverX)) EUB0000045b PIK3CD
T2 sequence (whole entry): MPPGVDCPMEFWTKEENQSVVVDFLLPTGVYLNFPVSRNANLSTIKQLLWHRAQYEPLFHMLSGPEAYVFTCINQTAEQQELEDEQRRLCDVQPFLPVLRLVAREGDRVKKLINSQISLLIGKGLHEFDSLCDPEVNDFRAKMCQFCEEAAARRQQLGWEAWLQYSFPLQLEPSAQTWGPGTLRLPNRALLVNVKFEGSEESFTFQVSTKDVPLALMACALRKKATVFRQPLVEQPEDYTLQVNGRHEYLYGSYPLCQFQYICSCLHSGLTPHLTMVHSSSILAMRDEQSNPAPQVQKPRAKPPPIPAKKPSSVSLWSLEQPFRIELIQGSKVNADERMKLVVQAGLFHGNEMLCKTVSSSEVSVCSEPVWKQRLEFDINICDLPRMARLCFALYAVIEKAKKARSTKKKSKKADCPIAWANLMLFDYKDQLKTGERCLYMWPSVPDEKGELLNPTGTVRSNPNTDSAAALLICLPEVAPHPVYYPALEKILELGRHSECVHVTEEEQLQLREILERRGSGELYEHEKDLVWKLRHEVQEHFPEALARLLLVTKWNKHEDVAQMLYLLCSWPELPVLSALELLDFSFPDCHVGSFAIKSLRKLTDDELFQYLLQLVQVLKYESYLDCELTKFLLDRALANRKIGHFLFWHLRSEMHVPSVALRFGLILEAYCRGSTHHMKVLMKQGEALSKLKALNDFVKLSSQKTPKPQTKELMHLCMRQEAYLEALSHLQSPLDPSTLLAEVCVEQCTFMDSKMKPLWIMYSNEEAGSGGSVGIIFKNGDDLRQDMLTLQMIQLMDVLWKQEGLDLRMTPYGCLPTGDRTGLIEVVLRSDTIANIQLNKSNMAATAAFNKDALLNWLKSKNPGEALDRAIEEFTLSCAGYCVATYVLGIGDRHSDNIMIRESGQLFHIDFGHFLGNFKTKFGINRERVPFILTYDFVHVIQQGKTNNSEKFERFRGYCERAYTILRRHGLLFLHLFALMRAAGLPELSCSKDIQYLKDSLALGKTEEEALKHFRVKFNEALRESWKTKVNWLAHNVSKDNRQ

[8] = molecular target: Dual specificity protein kinase CLK1 (Homo sapiens, UniProt P49759); assay: Selectivity interaction (KinomeScan (DiscoverX)) EUB0001550a CLK1; details: at 1 µM
Chain of Dual specificity protein kinase CLK1 (P49759 whole entry, looked up): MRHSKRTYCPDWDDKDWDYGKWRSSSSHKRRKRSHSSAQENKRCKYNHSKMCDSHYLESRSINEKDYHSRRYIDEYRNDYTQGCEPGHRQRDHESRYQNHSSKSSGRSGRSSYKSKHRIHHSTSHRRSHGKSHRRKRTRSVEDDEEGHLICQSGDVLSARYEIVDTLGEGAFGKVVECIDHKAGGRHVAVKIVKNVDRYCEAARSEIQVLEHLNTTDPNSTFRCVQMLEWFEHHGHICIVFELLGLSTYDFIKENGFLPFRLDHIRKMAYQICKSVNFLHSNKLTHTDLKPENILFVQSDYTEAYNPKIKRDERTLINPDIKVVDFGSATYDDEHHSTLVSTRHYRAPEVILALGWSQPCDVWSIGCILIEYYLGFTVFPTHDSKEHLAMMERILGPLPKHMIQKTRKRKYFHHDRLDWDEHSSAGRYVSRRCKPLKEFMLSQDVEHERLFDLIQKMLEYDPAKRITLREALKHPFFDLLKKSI

Chain of Transcription intermediary factor 1-alpha (Homo sapiens) (O15164 whole entry): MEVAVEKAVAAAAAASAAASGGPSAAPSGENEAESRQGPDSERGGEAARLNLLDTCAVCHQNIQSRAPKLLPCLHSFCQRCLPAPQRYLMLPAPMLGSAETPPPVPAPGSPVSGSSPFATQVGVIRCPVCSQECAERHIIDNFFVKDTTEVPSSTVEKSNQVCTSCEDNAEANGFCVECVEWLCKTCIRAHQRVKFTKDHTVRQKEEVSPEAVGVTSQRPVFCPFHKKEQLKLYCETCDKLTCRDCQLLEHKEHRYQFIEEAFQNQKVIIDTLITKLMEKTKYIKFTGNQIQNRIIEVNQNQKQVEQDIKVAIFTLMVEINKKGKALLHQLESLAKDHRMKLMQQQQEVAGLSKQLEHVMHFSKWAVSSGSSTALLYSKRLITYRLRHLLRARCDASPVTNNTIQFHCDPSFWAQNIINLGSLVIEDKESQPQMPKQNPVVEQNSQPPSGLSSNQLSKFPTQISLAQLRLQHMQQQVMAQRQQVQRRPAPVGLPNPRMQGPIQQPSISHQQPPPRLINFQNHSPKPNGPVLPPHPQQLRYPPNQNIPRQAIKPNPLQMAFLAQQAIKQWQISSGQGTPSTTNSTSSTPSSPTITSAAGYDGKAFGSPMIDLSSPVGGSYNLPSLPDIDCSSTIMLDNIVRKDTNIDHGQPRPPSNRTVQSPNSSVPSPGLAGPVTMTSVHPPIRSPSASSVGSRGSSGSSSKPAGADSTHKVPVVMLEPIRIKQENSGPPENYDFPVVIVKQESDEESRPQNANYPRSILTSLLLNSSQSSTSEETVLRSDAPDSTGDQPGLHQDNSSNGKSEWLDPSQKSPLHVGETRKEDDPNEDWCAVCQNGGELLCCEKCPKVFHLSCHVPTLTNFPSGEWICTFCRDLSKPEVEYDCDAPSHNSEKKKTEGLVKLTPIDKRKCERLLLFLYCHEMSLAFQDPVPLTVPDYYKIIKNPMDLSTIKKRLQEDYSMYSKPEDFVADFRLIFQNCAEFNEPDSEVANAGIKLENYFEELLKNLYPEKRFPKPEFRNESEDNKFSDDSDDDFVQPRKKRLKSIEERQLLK

- dTM [1]: < 2 K
Compound: CN(C)CCCOc1ccc(-c2cc(NCCCn3cccn3)nc(S(C)(=O)=O)n2)cc1

- % of inhibition [2]: -16.2%
- % of inhibition [3]: 12.8%
Compound: CC[C@@H]1[C@H](F)C(=O)N[C@@H]1COc1nccc2cc(C(N)=O)c(OC)cc12 [ZIMLOVISERTIB]

- % of control [8]: 30%
Compound: CN(C)CC#Cc1ccc2[nH]c3c(c2c1)-c1nc(N)ncc1CCC3

The remaining lines, values behind:

Compound: Cc1cc(C)cc([C@@H]2c3cc(C)ccc3NC(=O)CN2C(=O)c2ccc(Br)s2)c1
- % of activity ([4]; at 1 µM): 103%
- % of activity ([4]; at 10 µM): 101%

Compound: CN(C)C/C=C/C(=O)Nc1ccc(C(=O)N2CCCC(Nc3ncc(Cl)c(-c4c[nH]c5ccccc45)n3)C2)cc1 (stereo unspecified)
- % of control [5]: 100%

Compound: C=CC(=O)Nc1cc(-n2c(=O)ccc3cnc4ccc(-c5ccc(NS(C)(=O)=O)cc5)cc4c32)ccc1C
- % of control ([6]; at 1 µM): 100%
- % of control ([6]; at 10 µM): 100%
- % of control ([7]; at 1 µM): 73%
- % of control ([7]; at 10 µM): 100%
